Data reported in PubChem BioAssay AID588774 (The Scripps Research Institute Molecular Screening Center, 2011).
The source made the active and inactive calls.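 How the source made its calls: active means target enzyme inhibited at least 50% at a set dose, and selective over every off-target enzyme by a set factor; inactive means weaker inhibition or too little selectivity.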

Tests used:
[1] = target: Monoglyceride lipase (Mus musculus) (UniProt O35678); experiment: pPAFAH inhibition and serine hydrolase selectivity, SAR follow-up, selectivity assay for pPAFAH inhibitor project, biochemical, gel-based, FP-Rh fluorescence, complex proteome, SAR compounds (AID 588774); settings: gel-based competitive ABPP, MAGL, stronger effect = higher value;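 on inhibition: 0% = DMSO-only band intensity and 100% = blank gel background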
Monoglyceride lipase (Mus musculus), sequence (O35678 whole entry, looked up): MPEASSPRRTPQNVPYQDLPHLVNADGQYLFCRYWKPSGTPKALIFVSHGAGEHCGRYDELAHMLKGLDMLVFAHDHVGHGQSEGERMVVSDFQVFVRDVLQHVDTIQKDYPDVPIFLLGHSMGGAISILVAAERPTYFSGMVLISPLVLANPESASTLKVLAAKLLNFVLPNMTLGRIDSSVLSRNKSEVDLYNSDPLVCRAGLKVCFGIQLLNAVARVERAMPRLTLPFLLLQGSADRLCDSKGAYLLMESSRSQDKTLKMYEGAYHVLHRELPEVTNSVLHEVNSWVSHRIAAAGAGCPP

[2] = target: Platelet-activating factor acetylhydrolase (Mus musculus) (UniProt Q60963); experiment: as above; settings: gel-based competitive ABPP, pPAFAH, stronger effect = higher value
Platelet-activating factor acetylhydrolase (Mus musculus), sequence (Q60963 whole entry, looked up): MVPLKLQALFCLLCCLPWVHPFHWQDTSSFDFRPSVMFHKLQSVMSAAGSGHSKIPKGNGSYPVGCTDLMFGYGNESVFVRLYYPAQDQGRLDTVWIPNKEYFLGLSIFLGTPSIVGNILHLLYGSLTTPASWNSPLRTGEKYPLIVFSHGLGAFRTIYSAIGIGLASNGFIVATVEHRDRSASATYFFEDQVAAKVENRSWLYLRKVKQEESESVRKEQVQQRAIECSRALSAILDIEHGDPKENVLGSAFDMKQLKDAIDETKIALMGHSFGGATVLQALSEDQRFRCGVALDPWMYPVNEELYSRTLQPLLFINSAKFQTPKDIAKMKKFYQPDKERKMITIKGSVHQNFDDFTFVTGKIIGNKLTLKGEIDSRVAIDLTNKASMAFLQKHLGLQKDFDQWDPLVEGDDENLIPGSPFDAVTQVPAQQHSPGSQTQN

LYPLA1 = experiment: as above; settings: gel-based competitive ABPP, stronger effect = higher value
ABHD3 = experiment: as above; settings: gel-based competitive ABPP, stronger effect = higher value
[3] = as above; settings: gel-based competitive ABPP, at 10 µM
pPAFAH = experiment: as above; settings: gel-based competitive ABPP, anti-targets inhibited, at 10 µM
ABHD6 = experiment: as above; settings: gel-based competitive ABPP, stronger effect = higher value
LYPLA2 = experiment: as above; settings: gel-based competitive ABPP, stronger effect = higher value
MW 30 kDa = experiment: as above; settings: gel-based competitive ABPP, at 1 µM, stronger effect = higher value
FAAH = experiment: as above; settings: gel-based competitive ABPP, stronger effect = higher value
MW 32 kDa = experiment: as above; settings: gel-based competitive ABPP, at 1 µM, stronger effect = higher value
ABHD4 = ABHD4 (UniProt Q8VD66); experiment: as above; settings: gel-based competitive ABPP, stronger effect = higher value
ABHD4, sequence (Q8VD66 whole entry, looked up): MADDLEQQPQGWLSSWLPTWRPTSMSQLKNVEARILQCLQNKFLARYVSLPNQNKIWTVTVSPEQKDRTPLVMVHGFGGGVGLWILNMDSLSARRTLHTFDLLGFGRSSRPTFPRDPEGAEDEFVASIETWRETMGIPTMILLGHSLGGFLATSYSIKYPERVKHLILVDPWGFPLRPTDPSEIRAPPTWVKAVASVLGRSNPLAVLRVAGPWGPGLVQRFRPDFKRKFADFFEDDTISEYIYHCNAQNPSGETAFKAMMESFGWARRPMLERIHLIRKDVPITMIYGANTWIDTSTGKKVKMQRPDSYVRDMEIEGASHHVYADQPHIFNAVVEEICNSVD

For `Cc1cc(N2CCN(C(=O)n3ncc(-c4ccc([N+](=O)[O-])cc4)n3)CC2)c2ccccc2n1`, which inhibition ([1]; at 10 µM) is on record?
Its inhibition is 84% (inactive).

And the inhibition ([1]; inhibition, at 0.1 µM)?
The inhibition was 28%.

And the inhibition ([1]; inhibition, at 1 µM)?
Its inhibition is 68%.

And the inhibition ([2]; at 10 µM)?
Its inhibition is 99%.

And the inhibition ([2]; inhibition, at 0.1 µM)?
The inhibition was 97%.

What about the inhibition ([2]; inhibition, at 1 µM) of the same molecule?
Its inhibition is 99%.

What about the inhibition (LYPLA1; at 10 µM) of the same molecule?
The inhibition was 100% (inactive).

What about the inhibition (LYPLA1; inhibition, at 0.1 µM) of the same molecule?
The inhibition was 5%.

What about the inhibition (LYPLA1; inhibition, at 1 µM) of the same molecule?
Its inhibition is 86%.

What about the inhibition (ABHD3; at 10 µM) of the same molecule?
Its inhibition is 100% (inactive).

And the inhibition (ABHD3; inhibition, at 0.1 µM)?
Its inhibition is 11%.

And the inhibition (ABHD3; inhibition, at 1 µM)?
Its inhibition is 94%.

And the anti-target count ([3]; ABHD3, anti-targets inhibited)?
Its anti-target count is 9.

What about the anti-target count ([3]; ABHD4, anti-targets inhibited) of the same molecule?
Its anti-target count is 9.

And the anti-target count ([3]; ABHD6, anti-targets inhibited)?
Its anti-target count is 9.

And the anti-target count ([3]; FAAH, anti-targets inhibited)?
The anti-target count was 9.

And the anti-target count ([3]; LYPLA1, anti-targets inhibited)?
The anti-target count was 9.

What about the anti-target count ([3]; LYPLA2, anti-targets inhibited) of the same molecule?
Its anti-target count is 9.

And the anti-target count ([3]; MAGL, anti-targets inhibited)?
Its anti-target count is 9.

And the anti-target count (pPAFAH)?
The anti-target count was 9.

And the inhibition (ABHD6; at 10 µM)?
The inhibition was 72% (inactive).

And the inhibition (ABHD6; inhibition, at 0.1 µM)?
The inhibition was 17%.

And the inhibition (ABHD6; inhibition, at 1 µM)?
The inhibition was 59%.

And the inhibition (LYPLA2; at 10 µM)?
Its inhibition is 100% (inactive).

What about the inhibition (LYPLA2; inhibition, at 1 µM) of the same molecule?
The inhibition was 58%.

What about the inhibition (MW 30 kDa) of the same molecule?
Its inhibition is 67%.

And the inhibition (FAAH; at 10 µM)?
Its inhibition is 87% (inactive).

And the inhibition (FAAH; inhibition, at 0.1 µM)?
Its inhibition is 6%.

What about the inhibition (FAAH; inhibition, at 1 µM) of the same molecule?
Its inhibition is 81%.

And the inhibition (MW 32 kDa)?
Its inhibition is 59%.

And the inhibition (ABHD4; at 10 µM)?
Its inhibition is 100% (inactive).

And the inhibition (ABHD4; inhibition, at 0.1 µM)?
The inhibition was 11%.

What about the inhibition (ABHD4; inhibition, at 1 µM) of the same molecule?
The inhibition was 94%.
